Laboratory results taken from patent US6172079A, “5-substituted-3-oxadiazolyl-1,6-naphthyridin-2(1H)-one derivatives” (Dainippon Pharmaceutical Co., Ltd., priority 1997, dated 2001).

Legend:
benzodiazepine receptor = assay: Benzodiazepine Receptor Binding Assay; conditions: read-out: BZP-receptor Binding IC50; [3H]-diazepam 1.5 nM; rat brain crude synaptosome membrane; 0° C., 20 min
[1] = tested on: GABAA receptor complex (TBPS binding); assay: TBPS Binding Assay; set-up: species or system Wistar rats; conditions: [35S]TBPS 0.4 nM, GABA 1 μM, rat cerebral cortex membrane, +% inverse agonistic, 0% antagonistic
Protocol: The TBPS (t-butylbicyclophosphonothionate) binding assay and the preparation of the membrane specimen were done in a similar manner to the method of Biggio, G. et al. [cf. European Journal of Pharmacology, vol.
That is, to the cerebral cortex was added a 50-fold volume of an ice-cooled buffer (a 50 mM Tris-citrate buffer containing 100 mM sodium chloride, pH 7.4) and the mixture was homogenized at 0-4° C. and then centrifuged at 20,000 g for 20 minutes. The pellets thus obtained were once subjected to homogenization in a buffer and centrifugation by the same procedure as above and then kept in freezed state at -80° C. for more than 20 hours. On the test day, the freezed pellets were thawed and then subjected twice to the homogenization-centrifugation procedure as described above.
Subsequently, the filter was moved into a liquid scintillation vial and thereto was added a liquid scintillation cocktail (ACS-II, manufactured by Amersham, USA, 10 ml) and allowed to stand for a fixed period of time. […] Separately, the same procedures were repeated in the presence of Picrotoxin to determine the non-specific binding amount. The non-specific binding amount was deducted from the total binding amount to give the specific binding amount. The binding activity of the test compound was calculated by a variation rate, i.e., a rate of the specific binding amount of the test compound to the specific binding amount in control (using a solvent).

[2] = tested on: ddY male mice (pentylentetrazol-induced convulsion); assay: Test of Increasing Activity on Pentylentetrazol-induced Convulsion; assay type: in vivo; conditions: Mus musculus, 0.5 h, po, pentylentetrazol 70 mg/kg s.c. 15 min later, read-out: Effects (number of animals) with increased pentylentetrazol-induced convulsion (converted)
Protocol: It is known that benzodiazepine receptor inverse agonists increase convulsion induced by pentylentetrazol [cf. Progress in Neuro-Psychopharmacology and Biological Psychiatry, vol. […] Some compounds of the present invention were tested as to the activities of increasing the pentylentetrazol-induced convulsion.
A test compound (compounds disclosed in working examples) was orally administered to ddY male mice (weight; 22-25 g, five mice/group) in an amount of 5-100 mg/kg. […] The effects were evaluated by the number of mice among five mice, of which the convulsion increasing effects were observed.

GABAA receptor = conditions: background statement; cited from earlier work

Cc1nc(-c2cc3c(-c4ccccc4)nccc3[nH]c2=O)no1 [Example 4]
IC50 (benzodiazepine receptor): 1.65 nM
TBPS binding Variation Rate [1]: 20%
responders at 10 mg/kg [2]: 80%

COc1cccc(-c2nccc3[nH]c(=O)c(-c4noc(C)n4)cc23)c1 [Example 86, 3-(5-methyl-1,2,4-oxadiazol-3-yl)-5-(3-methoxyphenyl)-1,6-naphthyridin-2(1H)-one]
IC50 (benzodiazepine receptor): 2.21 nM
TBPS binding Variation Rate [1]: 12%
responders at 10 mg/kg [2]: 40%

CCCc1noc(-c2cc3c(-c4ccco4)nccc3[nH]c2=O)n1 [Example 220]
IC50 (benzodiazepine receptor): 0.93 nM
responders at 20 mg/kg [2]: 80%

CCc1nc(-c2cc3c(-c4cccs4)nccc3[nH]c2=O)no1 [Example 103, 3-(5-Ethyl-1,2,4-oxadiazol-3-yl)-5-(2-thienyl)-1,6-naphthyridin-2(1H)-one]
IC50 (benzodiazepine receptor): 0.83 nM
TBPS binding Variation Rate [1]: 21%
responders at 10 mg/kg [2]: 40%

Cc1nc(-c2cc3c(-c4ccccc4Cl)nccc3[nH]c2=O)no1 [Example 88]
IC50 (benzodiazepine receptor): 4.63 nM
TBPS binding Variation Rate [1]: 41%
responders at 10 mg/kg [2]: 100%

COc1cccc(-c2nccc3[nH]c(=O)c(-c4nc(C)no4)cc23)c1 [Example 186, 3-(3-Methyl-1,2,4-oxadiazol-5-yl)-5-(3-methoxyphenyl)-1,6-naphthyridin-2(1H)-one]
IC50 (benzodiazepine receptor): 1.55 nM
TBPS binding Variation Rate [1]: 21%
responders at 50 mg/kg [2]: 80%

O=c1[nH]c2ccnc(-c3ccsc3)c2cc1-c1nc(C2CC2)no1 [Example 247, 3-(3-Cyclopropyl-1,2,4-oxadiazol-5-yl)-5-(3-thienyl)-1,6-naphthyridin-2(1H)-one]
IC50 (benzodiazepine receptor): 1.39 nM
TBPS binding Variation Rate [1]: 16%
responders at 50 mg/kg [2]: 80%

CCc1noc(-c2cc3c(C)nccc3[nH]c2=O)n1 [Example 191, 3-(3-Ethyl-1,2,4-oxadiazol-5-yl)-5-methyl-1,6-naphthyridin-2(1H)-one]
TBPS binding Variation Rate [1]: 18%
responders at 10 mg/kg [2]: 100%

CCc1noc(-c2cc3c(-c4ccc(OC)cc4)nccc3[nH]c2=O)n1 [Example 210, 3-(3-Ethyl-1,2,4-oxadiazol-5-yl)-5-(4-methoxyphenyl)-1,6-naphthyridin-2(1H)-one]
IC50 (benzodiazepine receptor): 3.41 nM
TBPS binding Variation Rate [1]: 15%
responders at 10 mg/kg [2]: 80%

Cc1nc(-c2cc3c(-c4ccc(F)cc4)nccc3[nH]c2=O)no1 [Example 6]
IC50 (benzodiazepine receptor): 2.98 nM
TBPS binding Variation Rate [1]: 15%
responders at 100 mg/kg [2]: 80%

CCc1noc(-c2cc3c(-c4cccc(F)c4)nccc3[nH]c2=O)n1 [Example 200, 3-(3-Ethyl-1,2,4-oxadiazol-5-yl)-5-(3-fluorophenyl)-1,6-naphthyridin-2(1H)-one]
IC50 (benzodiazepine receptor): 0.92 nM
TBPS binding Variation Rate [1]: 17%
responders at 50 mg/kg [2]: 80%

CCc1c(C(=O)OC)ncc2[nH]c3cc(OC)c(OC)cc3c12 [DMCM, methyl-6,7-dimethoxy-4-ethyl-β-carboline-3-carboxylate]
uptake of Cl ion into cells (GABAA receptor): increased

CCc1nc(-c2cc3c(C4CC4C)nccc3[nH]c2=O)no1 (stereo not drawn) [Example 18, 3-(5-Ethyl-1,2,4-oxadiazol-3-yl)-5-(2-methylcyclopropyl)-1,6-naphthyridin-2(1H)-one]
IC50 (benzodiazepine receptor): 2.04 nM
TBPS binding Variation Rate [1]: 10%
responders at 20 mg/kg [2]: 60%

Cc1nc(-c2cc3c(-c4cccc(F)c4)nccc3[nH]c2=O)no1 [Example 5]
IC50 (benzodiazepine receptor): 1.64 nM
TBPS binding Variation Rate [1]: 21%
responders at 5 mg/kg ([2]; 5 mg/kg): 100%

CCCc1nccc2[nH]c(=O)c(-c3nc(CC)no3)cc12 [Example 192]
IC50 (benzodiazepine receptor): 4.22 nM
TBPS binding Variation Rate [1]: 13%
responders at 100 mg/kg [2]: 100%

COc1ccc(-c2nccc3[nH]c(=O)c(-c4noc(C)n4)cc23)cc1 [Example 11, 3-(5-Methyl-1,2,4-oxadiazol-3-yl)-5-(4-methoxyphenyl)-1,6-naphthyridin-2(1H)-one]
IC50 (benzodiazepine receptor): 9.77 nM
TBPS binding Variation Rate [1]: 21%
responders at 10 mg/kg [2]: 80%

Cc1cccc(-c2nccc3[nH]c(=O)c(-c4nc(C)no4)cc23)c1 [Example 183, 3-(3-Methyl-1,2,4-oxadiazol-5-yl)-5-(3-methylphenyl)-1,6-naphthyridin-2(1H)-one]
IC50 (benzodiazepine receptor): 1.55 nM
TBPS binding Variation Rate [1]: 8%
responders at 20 mg/kg [2]: 80%

CNC(=O)c1cc2c(cn1)[nH]c1ccccc12 [FG7142, N-methyl-β-carboline-3-carboxamide]
uptake of Cl ion into cells (GABAA receptor): increased

CCc1nc(-c2cc3c(-c4ccco4)nccc3[nH]c2=O)no1 [Example 102]
IC50 (benzodiazepine receptor): 0.81 nM
TBPS binding Variation Rate [1]: 33%
responders at 10 mg/kg [2]: 100%

Cc1nc(-c2cc3c(-c4ccccc4C)nccc3[nH]c2=O)no1 [Example 89, 3-(5-Methyl-1,2,4-oxadiazol-3-yl)-5-(2-methylphenyl)-1,6-naphthyridin-2(1H)-one]
IC50 (benzodiazepine receptor): 10.5 nM
TBPS binding Variation Rate [1]: 22%
responders at 50 mg/kg [2]: 100%

CCc1nc(-c2cc3c(-c4ccsc4)nccc3[nH]c2=O)no1 [Example 105]
IC50 (benzodiazepine receptor): 1.08 nM
TBPS binding Variation Rate [1]: 25%
responders at 50 mg/kg [2]: 80%

Cc1noc(-c2cc3c(-c4cccs4)nccc3[nH]c2=O)n1 [Example 189]
IC50 (benzodiazepine receptor): 0.84 nM
TBPS binding Variation Rate [1]: 29%

CCc1noc(-c2cc3c(-c4ccncc4)nccc3[nH]c2=O)n1 [Example 213, 3-(3-Ethyl-1,2,4-oxadiazol-5-yl)-5-(4-pyridyl)-1,6-naphthyridin-2(1H)-one]
IC50 (benzodiazepine receptor): 2.07 nM
TBPS binding Variation Rate [1]: 26%
responders at 10 mg/kg [2]: 100%

O=C1CN=C(c2ccccc2Cl)c2cc([N+](=O)[O-])ccc2N1 [chlonazepam]
uptake of Cl ion into cells (GABAA receptor): decreased

CCc1nc(-c2cc3c(-c4ccncc4)nccc3[nH]c2=O)no1 [Example 107]
IC50 (benzodiazepine receptor): 6.56 nM
TBPS binding Variation Rate [1]: 17%

O=c1[nH]c2ccnc(-c3cccc(Cl)c3)c2cc1-c1noc(C2CC2)n1 [Example 55]
IC50 (benzodiazepine receptor): 1.66 nM
TBPS binding Variation Rate [1]: -16%

Cc1nc(-c2cc3c(-c4ccncc4)nccc3[nH]c2=O)no1 [Example 94, 3-(5-Methyl-1,2,4-oxadiazol-3-yl)-5-(4-pyridyl)-1,6-naphthyridin-2(1H)-one]
IC50 (benzodiazepine receptor): 4.49 nM
TBPS binding Variation Rate [1]: 34%
responders at 50 mg/kg [2]: 80%

NCc1cc(=O)[nH]o1 [Muscimol]
uptake of Cl ion into cells (GABAA receptor): decreased

CCc1noc(-c2cc3c(CC(C)C)nccc3[nH]c2=O)n1 [Example 196]
IC50 (benzodiazepine receptor): 4.6 nM
TBPS binding Variation Rate [1]: -9%

CCc1nc(-c2cc3c(C4CCCCC4)nccc3[nH]c2=O)no1 [Example 23]
IC50 (benzodiazepine receptor): 1.76 nM
TBPS binding Variation Rate [1]: -23%

CCc1noc(-c2cc3c(-c4ccsc4)nccc3[nH]c2=O)n1 [Example 212]
IC50 (benzodiazepine receptor): 1.26 nM
TBPS binding Variation Rate [1]: 27%

CCc1noc(-c2cc3c(-c4cccs4)nccc3[nH]c2=O)n1 [Example 173, 3-(3-ethyl-1,2,4-oxadiazol-5-yl)-5-(2-thienyl)-1,6-naphthyridin-2(1H)-one]
IC50 (benzodiazepine receptor): 0.94 nM
TBPS binding Variation Rate [1]: 18%
responders at 20 mg/kg [2]: 100%

CC(C)c1noc(-c2cc3c(-c4ccco4)nccc3[nH]c2=O)n1 [Example 229]
IC50 (benzodiazepine receptor): 1.12 nM
TBPS binding Variation Rate [1]: 10%

Cc1ccc(-c2nccc3[nH]c(=O)c(-c4nc(C)no4)cc23)cc1 [Example 184]
TBPS binding Variation Rate [1]: 17%
responders at 50 mg/kg [2]: 100%
